Molecules are shown by their SMILES. Like-named read-outs stand apart in the source and are kept apart here. Numbered stars: 1 amine (or outer) side, 2 acyl side, 3 side chain; on linkers, the order of the positions; unused ones are H or OH. Square brackets hold non-standard residues; d marks the D form. Side chains are listed from the residue outwards. Peptide text beside a SMILES is read from it. * marks the point of attachment. C18 diacid = O=C(O)CCCCCCCCCCCCCCCCC(=O)*; γGlu = O=C(O)[C@H](CCC(=O)[*:2])N[*:1]; αMeF = C[C@](N)(Cc1ccccc1)C(=O)O; αMeS = C[C@](N)(CO)C(=O)O; AEEA = NCCOCCOCC(=O)O; Aib = CC(C)(N)C(=O)O

Holding throughout (assay type): cell-based
Assay [1] concerns the target T1, human GLP-1 receptor (GLP-1R) (Homo sapiens, UniProt P43220).
T1 construct: expressed in transfected cells
Description: cAMP assay, human GLP-1R cells. In short, it runs like this: (§1)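 Peptide-stimulated cAMP measured by two-step HTRF after a 30 min room-temperature incubation with receptor-expressing cells (hGLP-1R, hGIPR at 1×10^5 cells/ml; hGCGR at 2×10^5 cells/ml). Duplicate dilutions; EC50 from 4-parameter logistic fit of % Delta F.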

Assay [2] addresses T2, human glucagon receptor (GCGR) (Homo sapiens, UniProt P47871).
T2 construct: expressed in transfected cells
Description: cAMP assay, human GCGR cells. The following applies: cAMP assay. The method, boiled down: as §1

Assay [3] deals with T3, human glucose-dependent insulinotropic peptide receptor (GIPR) (Homo sapiens, UniProt P48546).
T3 construct: expressed in transfected cells
T3 sequence (P48546 22-466): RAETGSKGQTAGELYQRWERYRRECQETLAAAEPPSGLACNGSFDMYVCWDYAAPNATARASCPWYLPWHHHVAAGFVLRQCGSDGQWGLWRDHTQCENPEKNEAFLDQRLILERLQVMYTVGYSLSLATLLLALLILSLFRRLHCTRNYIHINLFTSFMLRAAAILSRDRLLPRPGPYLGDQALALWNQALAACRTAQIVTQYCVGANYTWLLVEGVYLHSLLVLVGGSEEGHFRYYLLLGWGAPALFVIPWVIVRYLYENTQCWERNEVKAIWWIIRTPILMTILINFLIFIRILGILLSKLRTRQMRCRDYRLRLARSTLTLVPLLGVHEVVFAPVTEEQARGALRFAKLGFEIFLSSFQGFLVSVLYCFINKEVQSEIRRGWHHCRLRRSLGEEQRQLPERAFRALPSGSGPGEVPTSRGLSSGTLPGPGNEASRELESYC
Description: cAMP assay, human GIPR cells. The following applies: cAMP assay. The method, boiled down:
as §1

Assay [4] addresses T4, GLP-1R (INS1e assay) (Rattus norvegicus, UniProt P32301).
T4 construct: endogenous in cells; host or cells: INS-1E cells
T4 sequence (P32301 22-463): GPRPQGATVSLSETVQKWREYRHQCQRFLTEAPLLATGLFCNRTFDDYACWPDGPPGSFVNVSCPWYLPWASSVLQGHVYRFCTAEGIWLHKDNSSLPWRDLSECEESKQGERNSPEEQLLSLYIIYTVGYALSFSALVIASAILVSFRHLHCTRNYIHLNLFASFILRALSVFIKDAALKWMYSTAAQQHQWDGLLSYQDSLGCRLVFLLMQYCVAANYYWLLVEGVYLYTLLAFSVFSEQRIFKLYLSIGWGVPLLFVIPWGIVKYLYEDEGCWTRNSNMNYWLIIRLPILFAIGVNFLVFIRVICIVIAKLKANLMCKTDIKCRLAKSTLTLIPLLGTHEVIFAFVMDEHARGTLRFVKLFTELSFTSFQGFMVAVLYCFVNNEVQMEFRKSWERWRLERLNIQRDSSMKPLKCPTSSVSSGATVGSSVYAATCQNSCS
In words: INS1e assay, cAMP activity at GLP-1R. The following applies: mono-lipidated peptides. The method, boiled down:
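It pairs cAMP-d2 acceptor with anti-cAMP cryptate donor, both prepared 1/20 in conjugate/lysis buffer, applied as a two-step protocol.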

The mark [5] stands for this setting: cAMP assay, first determination (n1), read-out: Primary assay EC50 GLP-1R n1.
The mark [6] stands for this setting: cAMP assay, second determination (n2), read-out: Primary assay EC50 GLP-1R n2.
Where [7] appears, read: mean of n1 and n2, read-out: Mean pM GLP-1R.
Where [8] appears, read: first determination (n1), read-out: Primary assay EC50 Gluc-R (n1).
Setting [9] is: second determination (n2), read-out: Primary assay EC50 Gluc-R (n2).
Where [10] appears, read: first determination (n1), read-out: Primary assay EC50 GIP-R (n1).
The mark [11] stands for this setting: second determination (n2), read-out: Primary assay EC50 GIP-R (n2).
Setting [12] is: mean of n1 and n2, read-out: INS1e assay EC50 Mean pM GLP-1R.
[13] abbreviates: replicate n1, read-out: INS1e assay EC50 GLP-1R n1.
Setting [14] is: replicate n2, read-out: INS1e assay EC50 GLP-1R n2.

T2 sequence (P47871 26-477): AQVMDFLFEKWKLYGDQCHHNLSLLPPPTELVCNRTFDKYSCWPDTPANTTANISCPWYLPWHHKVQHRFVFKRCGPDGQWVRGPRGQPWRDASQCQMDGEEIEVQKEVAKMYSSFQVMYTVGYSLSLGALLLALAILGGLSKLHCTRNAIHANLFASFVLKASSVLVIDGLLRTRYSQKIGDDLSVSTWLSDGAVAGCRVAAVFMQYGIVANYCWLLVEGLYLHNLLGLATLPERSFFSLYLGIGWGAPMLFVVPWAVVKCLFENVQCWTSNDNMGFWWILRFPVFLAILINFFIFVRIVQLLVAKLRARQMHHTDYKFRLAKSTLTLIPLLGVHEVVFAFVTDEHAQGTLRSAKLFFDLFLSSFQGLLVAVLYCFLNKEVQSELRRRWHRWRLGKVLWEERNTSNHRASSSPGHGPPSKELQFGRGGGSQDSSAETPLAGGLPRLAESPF
T1 sequence (P43220 24-463): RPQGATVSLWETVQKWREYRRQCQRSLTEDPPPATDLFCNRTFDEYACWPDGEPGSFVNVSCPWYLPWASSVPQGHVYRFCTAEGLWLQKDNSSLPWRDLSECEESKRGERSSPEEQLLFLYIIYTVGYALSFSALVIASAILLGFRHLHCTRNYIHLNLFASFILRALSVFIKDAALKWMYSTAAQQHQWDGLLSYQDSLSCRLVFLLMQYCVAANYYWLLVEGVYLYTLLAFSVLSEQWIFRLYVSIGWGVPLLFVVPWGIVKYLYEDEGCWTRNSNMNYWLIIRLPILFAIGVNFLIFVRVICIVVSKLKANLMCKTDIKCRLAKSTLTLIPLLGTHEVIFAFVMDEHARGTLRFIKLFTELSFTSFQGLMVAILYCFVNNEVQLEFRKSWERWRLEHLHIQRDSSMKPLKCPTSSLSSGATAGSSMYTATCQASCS

In the case of `CC[C@H](C)[C@H](NC(=O)[C@H](Cc1ccccc1)NC(=O)[C@H](CCC(=O)O)NC(=O)[C@H](CCC(=O)O)NC(=O)[C@H](C)NC(=O)[C@H](C)NC(=O)[C@H](CCC(=O)O)NC(=O)CNC(=O)[C@H](CCC(=O)O)NC(=O)[C@H](CC(C)C)NC(=O)[C@](C)(Cc1ccccc1)NC(=O)[C@H](CO)NC(=O)[C@](C)(CO)NC(=O)[C@@H](NC(=O)[C@H](CC(=O)O)NC(=O)[C@H](CO)NC(=O)[C@@H](NC(=O)[C@](C)(Cc1ccccc1)NC(=O)[C@H](CO)NC(=O)CNC(=O)[C@H](CCC(=O)O)NC(=O)C(C)(C)NC(=O)[C@@H](N)Cc1c[nH]cn1)[C@@H](C)O)C(C)C)C(=O)N[C@@H](CCCCNC(=O)COCCOCCNC(=O)COCCOCCNC(=O)CC[C@H](NC(=O)CCCCCCCCCCCCCCCCC(=O)O)C(=O)O)C(=O)N[C@@H](Cc1c[nH]c2ccccc12)C(=O)N[C@H](C(=O)N[C@H](C(=O)N[C@@H](CCC(=O)O)C(=O)NCC(=O)NCC(N)=O)C(C)C)C(C)C` [compound 66] (H-H[Aib]EGS[αMeF]TSDV[αMeS]S[αMeF]LEGEAAEEFIK([AEEA-AEEA-γGlu-C18 diacid])WVVEGG-NH2; N-terminus assumed), the EC50 in assay [1] (setting [5]) is 203 pM; in assay [1] (setting [6]) it was 97.9 pM; in assay [1] (setting [7]), 150 pM; in assay [2] (setting [8]) it was ≥ 25.1 nM; in assay [2] (setting [9]) it was ≥ 25.1 nM; in assay [3] (setting [10]) it was ≥ 25.1 nM. Moreover, the EC50 was ≥ 25.1 nM in assay [3] (setting [11]), 42200 pM in assay [4] (setting [12]), 45600 pM in assay [4] (setting [13]) and 38800 pM in assay [4] (setting [14]).

For `CCCCCCCCCCCC(=O)NCCCCCC(=O)NCCCCCC(=O)NCCCC[C@H](NC(=O)[C@H](C)NC(=O)[C@H](C)NC(=O)[C@H](CCC(=O)O)NC(=O)CNC(=O)[C@H](CCC(=O)O)NC(=O)[C@H](CC(C)C)NC(=O)[C@](C)(Cc1ccccc1)NC(=O)[C@H](CO)NC(=O)[C@](C)(CO)NC(=O)[C@@H](NC(=O)[C@H](CC(=O)O)NC(=O)[C@H](CO)NC(=O)[C@@H](NC(=O)[C@](C)(Cc1ccccc1)NC(=O)[C@H](CO)NC(=O)CNC(=O)[C@H](CCC(=O)O)NC(=O)C(C)(C)NC(=O)[C@@H](N)Cc1c[nH]cn1)[C@@H](C)O)C(C)C)C(=O)N[C@@H](CCC(=O)O)C(=O)N[C@@](C)(Cc1ccccc1)C(=O)N[C@H](C(=O)N[C@@H](C)C(=O)N[C@@](C)(Cc1ccccc1)C(=O)N[C@H](C(=O)N[C@H](C(=O)N[C@@](C)(CCCCN)C(=O)NCC(=O)NCC(N)=O)C(C)C)C(C)C)[C@@H](C)CC` [compound 132], the EC50 in assay [1] (setting [5]) was 11 pM; in assay [1] (setting [6]) it was 7.1 pM; in assay [1] (setting [7]), 9 pM; in assay [2] (setting [8]), ≥ 28 nM; in assay [2] (setting [9]) it was ≥ 28 nM; in assay [3] (setting [10]), ≥ 28 nM. The EC50 in assay [3] (setting [11]) is ≥ 28 nM; in assay [4] (setting [12]) it was 122 pM; in assay [4] (setting [13]), 129 pM; in assay [4] (setting [14]), 115 pM.

The record behind these values is patent US10414811B2, “Protease-resistant lipidated GLP-1 analogs” (MEDIMMUNE LIMITED, priority 2015, dated 2019).
